Measurements from PubChem BioAssay AID1259407 (Chemical Carcinogenesis Research Information System (CCRIS), 2018).
Active and inactive are the calls of the source. No rule for the calls is given here.

Test system: CCRIS mutagenicity, Ames/micronucleus/aberration tests
Assay: CCRIS mutagenicity studies
[1] = Test System: AMES SALMONELLA TYPHIMURIUM, Strain/Indicator: TA98, Metabolic Activation: NONE, Method: PREINCUBATION
[2] = Test System: AMES SALMONELLA TYPHIMURIUM, Strain/Indicator: TA100, Metabolic Activation: NONE, Method: PREINCUBATION
[3] = Test System: AMES SALMONELLA TYPHIMURIUM, Strain/Indicator: TA100, Metabolic Activation: NONE, Method: STANDARD PLATE
[4] = Test System: AMES SALMONELLA TYPHIMURIUM, Strain/Indicator: TA1535, Metabolic Activation: NONE, Method: PREINCUBATION
[5] = Test System: AMES SALMONELLA TYPHIMURIUM, Strain/Indicator: TA1537, Metabolic Activation: NONE, Method: PREINCUBATION

O=c1cn[nH]c(=O)[nH]1
mutagenic call (Test System: AMES SALMONELLA TYPHIMURIUM, Strain/Indicator: TA98, Metabolic Activation: MAIZE SEEDLING, S-14, Method: PREINCUBATION): inactive; negative | mutagenic call (Test System: AMES SALMONELLA TYPHIMURIUM, Strain/Indicator: TA98, Metabolic Activation: MOUSE, LIVER, S-9, Method: PREINCUBATION): inactive; negative | mutagenic call [1]: inactive; negative | mutagenic call (Test System: AMES SALMONELLA TYPHIMURIUM, Strain/Indicator: TA98, Metabolic Activation: NONE, Method: STANDARD PLATE): inactive; negative | mutagenic call (Test System: AMES SALMONELLA TYPHIMURIUM, Strain/Indicator: TA98, Metabolic Activation: RAT, LIVER, S-9, AROCLOR 1254, Method: STANDARD PLATE): active; positive | mutagenic call (Test System: AMES SALMONELLA TYPHIMURIUM, Strain/Indicator: TA100, Metabolic Activation: MAIZE SEEDLING, S-14, Method: PREINCUBATION): inactive; negative | mutagenic call (Test System: AMES SALMONELLA TYPHIMURIUM, Strain/Indicator: TA100, Metabolic Activation: MOUSE, LIVER, S-9, Method: PREINCUBATION): inactive; negative | mutagenic call [2]: inactive; negative | mutagenic call [3]: inactive; negative | mutagenic call (Test System: AMES SALMONELLA TYPHIMURIUM, Strain/Indicator: TA100, Metabolic Activation: RAT, LIVER, S-9, AROCLOR 1254, Method: STANDARD PLATE): inactive; negative | mutagenic call [4]: inactive; negative | mutagenic call (Test System: AMES SALMONELLA TYPHIMURIUM, Strain/Indicator: TA1535, Metabolic Activation: NONE, Method: STANDARD PLATE): inactive; negative | mutagenic call (Test System: AMES SALMONELLA TYPHIMURIUM, Strain/Indicator: TA1535, Metabolic Activation: RAT, LIVER, S-9, AROCLOR 1254, Method: STANDARD PLATE): inactive; negative | mutagenic call [5]: inactive; negative | mutagenic call (Test System: AMES SALMONELLA TYPHIMURIUM, Strain/Indicator: TA1537, Metabolic Activation: NONE, Method: STANDARD PLATE): inactive; negative | mutagenic call (Test System: AMES SALMONELLA TYPHIMURIUM, Strain/Indicator: TA1537, Metabolic Activation: RAT, LIVER, S-9, AROCLOR 1254, Method: STANDARD PLATE): inactive; negative | mutagenic call (Test System: AMES SALMONELLA TYPHIMURIUM, Strain/Indicator: TA1538, Metabolic Activation: NONE, Method: PREINCUBATION): inactive; negative | mutagenic call (Test System: AMES SALMONELLA TYPHIMURIUM, Strain/Indicator: TA1538, Metabolic Activation: NONE, Method: STANDARD PLATE): inactive; negative | mutagenic call (Test System: AMES SALMONELLA TYPHIMURIUM, Strain/Indicator: TA1538, Metabolic Activation: RAT, LIVER, S-9, AROCLOR 1254, Method: STANDARD PLATE): active; positive

O=[N+]([O-])c1c(O)c(Cl)cc(Cl)c1Cl
mutagenic call (Test System: AMES SALMONELLA TYPHIMURIUM, Strain/Indicator: TA97, Metabolic Activation: HAMSTER, LIVER, S-9, AROCLOR 1254 (5 OR 10%), Method: PREINCUBATION): inactive; negative | mutagenic call (Test System: AMES SALMONELLA TYPHIMURIUM, Strain/Indicator: TA97, Metabolic Activation: HAMSTER, LIVER, S-9, AROCLOR 1254 (30%), Method: PREINCUBATION): inactive; negative | mutagenic call (Test System: AMES SALMONELLA TYPHIMURIUM, Strain/Indicator: TA97, Metabolic Activation: NONE, Method: PREINCUBATION): inactive; negative | mutagenic call (Test System: AMES SALMONELLA TYPHIMURIUM, Strain/Indicator: TA97, Metabolic Activation: RAT, LIVER, S-9, AROCLOR 1254 (10%), Method: PREINCUBATION): inactive; negative | mutagenic call (Test System: AMES SALMONELLA TYPHIMURIUM, Strain/Indicator: TA97, Metabolic Activation: RAT, LIVER, S-9, AROCLOR 1254 (30%), Method: PREINCUBATION): inactive; negative | mutagenic call (Test System: AMES SALMONELLA TYPHIMURIUM, Strain/Indicator: TA98, Metabolic Activation: HAMSTER, LIVER, S-9, AROCLOR 1254 (10%), Method: PREINCUBATION): inactive; negative | mutagenic call (Test System: AMES SALMONELLA TYPHIMURIUM, Strain/Indicator: TA98, Metabolic Activation: HAMSTER, LIVER, S-9, AROCLOR 1254 (30%), Method: PREINCUBATION): inactive; negative | mutagenic call [1]: inactive; negative | mutagenic call (Test System: AMES SALMONELLA TYPHIMURIUM, Strain/Indicator: TA98, Metabolic Activation: RAT, LIVER, S-9, AROCLOR 1254 (10%), Method: PREINCUBATION): inactive; negative | mutagenic call (Test System: AMES SALMONELLA TYPHIMURIUM, Strain/Indicator: TA98, Metabolic Activation: RAT, LIVER, S-9, AROCLOR 1254 (30%), Method: PREINCUBATION): inactive; negative | mutagenic call (Test System: AMES SALMONELLA TYPHIMURIUM, Strain/Indicator: TA100, Metabolic Activation: HAMSTER, LIVER, S-9, AROCLOR 1254 (10%), Method: PREINCUBATION): inactive; negative | mutagenic call (Test System: AMES SALMONELLA TYPHIMURIUM, Strain/Indicator: TA100, Metabolic Activation: HAMSTER, LIVER, S-9, AROCLOR 1254 (30%), Method: PREINCUBATION): inactive; negative | mutagenic call [2]: inactive; negative | mutagenic call (Test System: AMES SALMONELLA TYPHIMURIUM, Strain/Indicator: TA100, Metabolic Activation: RAT, LIVER, S-9, AROCLOR 1254 (10%), Method: PREINCUBATION): inactive; negative | mutagenic call (Test System: AMES SALMONELLA TYPHIMURIUM, Strain/Indicator: TA100, Metabolic Activation: RAT, LIVER, S-9, AROCLOR 1254 (30%), Method: PREINCUBATION): inactive; negative | mutagenic call (Test System: AMES SALMONELLA TYPHIMURIUM, Strain/Indicator: TA1535, Metabolic Activation: HAMSTER, LIVER, S-9, AROCLOR 1254 (10%), Method: PREINCUBATION): inactive; negative | mutagenic call (Test System: AMES SALMONELLA TYPHIMURIUM, Strain/Indicator: TA1535, Metabolic Activation: HAMSTER, LIVER, S-9, AROCLOR 1254 (30%), Method: PREINCUBATION): inactive; negative | mutagenic call [4]: inactive; negative | mutagenic call (Test System: AMES SALMONELLA TYPHIMURIUM, Strain/Indicator: TA1535, Metabolic Activation: RAT, LIVER, S-9, AROCLOR 1254 (10%), Method: PREINCUBATION): inactive; negative | mutagenic call (Test System: AMES SALMONELLA TYPHIMURIUM, Strain/Indicator: TA1535, Metabolic Activation: RAT, LIVER, S-9, AROCLOR 1254 (30%), Method: PREINCUBATION): inactive; negative | mutagenic call (Test System: AMES SALMONELLA TYPHIMURIUM, Strain/Indicator: TA1537, Metabolic Activation: HAMSTER, LIVER, S-9, AROCLOR 1254 (30%), Method: PREINCUBATION): inactive; negative | mutagenic call [5]: inactive; negative | mutagenic call (Test System: AMES SALMONELLA TYPHIMURIUM, Strain/Indicator: TA1537, Metabolic Activation: RAT, LIVER, S-9, AROCLOR 1254 (30%), Method: PREINCUBATION): inactive; negative

O=C1CCc2c1cc(C(F)(F)F)c1c3c(ccc21)[C@H](O)[C@@H](O)C=C3
mutagenic call (Test System: AMES SALMONELLA TYPHIMURIUM, Strain/Indicator: TA100, Metabolic Activation: RAT, LIVER, S-9, AROCLOR 1254): active; positive

CC(C)COS(C)(=O)=O
mutagenic call (End Point: IN VITRO MICRONUCLEUS, Test System: MOUSE LYMPHOMA L5178Y CELLS, Metabolic Activation: NONE): inactive; negative; significant increase at highly/excessively cytotoxic doses | mutagenic call (End Point: IN VITRO MICRONUCLEUS, Test System: MOUSE LYMPHOMA L5178Y CELLS, Metabolic Activation: RAT, LIVER, S-9): inactive; negative | mutagenic call [3]: active; positive | mutagenic call (Test System: AMES SALMONELLA TYPHIMURIUM, Strain/Indicator: TA100, Metabolic Activation: RAT, LIVER, S-9, Method: STANDARD PLATE): active; positive

Cc1nn(C)c(Oc2ccccc2)c1/C=N/OCc1ccc(C(=O)OC(C)(C)C)cc1
mutagenic call (End Point: In vitro chromosomal aberrations, Test System: Human lymphocytes/Male, Metabolic Activation: None): inactive; negative | mutagenic call (End Point: In vitro chromosomal aberrations, Test System: Human lymphocytes/Male, Metabolic Activation: Rat, Liver, S-9): inactive; negative | mutagenic call (End Point: In vivol micronucleus, Species: Mouse, Strain/Sex: CD-1, Route: Oral): inactive; negative
